# Like-named read-outs stand apart in the source and are kept apart here.
# Legend:
# Neisseria gonorrhoeae = test: Agar dilution MIC, Neisseria gonorrhoeae isolates (Test 3); format: cell-based; conditions: 24 h, read-out: Minimum Inhibitory Concentration
# Procedure: Compounds were tested against six Neisseria gonorrhoeae isolates. The bacteria used were provided by the Department of Bacterial Diseases of the Walter Reed Army Institute of Research. The test procedure used was the agar dilution method in duplicate as outlined by J. C. Sherris on pages 411-412 (loc. cit.). GC Medium (Difco) with a 2% defined supplement added as described by D. S. Kellogg et al. [J. Bact. 85:1274-1279 (1963)] was used as the media. The compounds were dissolved in DMSO (1.0 mg/mL), diluted with GC broth (GC Medium without agar) to the appropriate concentration, and added to the GC Medium at 55°-56° C. The latter was then poured and allowed to solidify. A penicillin standard was also prepared with initial dilutions as described by J. C. Sherris followed by dilutions with GC broth and addition to the GC Medium at 55°-56° C. as above. The inoculum was 1:200 GC broth dilution of a suspension of colony isolates after the suspension was adjusted visually to the turbidity standard described by J. M. Matsen and A. L. Barr on page 422 in "Manual of Clinical Microbiology," 2nd ed., E. Lennette, E. H. Spaulding, and J. P. Truant, Ed. (American Society for Microbiology, Washington, D.C., 1974). The plates were inoculated with a replicator and incubated at 37° C. under 5-10% carbon dioxide.
# Neisseria meningitidis = test: Macro broth dilution MIC, Neisseria meningitidis isolates (Test 2); format: cell-based; conditions: Neisseria meningitidis, 24 h, read after 24 hours, read-out: Minimum Inhibitory Concentration
# Procedure: Compounds were tested against five isolates of Neisseria meningitidis. The bacterial isolates were provided by the Department of Bacterial Diseases of the Walter Reed Army Institute of Research. The test procedure used was the macro broth dilution method in duplicate outlined by J. C. Sherris on pages 414-415 (loc. cit.). The test compounds and controls were prepared as in Test 1 above. Ampicillin and penicillin standards were initially diluted as described by J. C. Sherris on pages 411-412 (loc. cit.) followed by dilution with Mueller-Hinton broth. The tubes were incubated at 37° C. under 5-10% carbon dioxide.
# [1] = tested on: Plasmodium berghei KBG 173; test: In vivo antimalarial activity in mice (Test 5); design: key to In vivo Antimalarial Activity: C: Mice surviving 60 days are considered cured; Active: Activity is defined as a 100% increase in the mean survival time of the treated mice compared to the control group; Toxicity is defined as a decrease in the mean survival time of the treated mice as compared to the control group; conditions: for ED50: Plasmodium berghei, computed estimate of the dose required to cure 50% of the mice; for In vivo Antimalarial Activity: mice, C = Cure (cured/treated mice)
# Procedure: Compounds were tested against Plasmodium berghei KBG 173 malaria in mice following the procedure described by T. S. Osdene, P. B. Russell, and L. Rane [J. Med. Chem. 10:431-434 (1967)]. Five mice were tested at each dosage level. Mice surviving 60 days are considered cured. Toxicity is defined as a decrease in the mean survival time of the treated mice as compared to the control group. Activity is defined as a 100% increase in the mean survival time of the treated mice compared to the control group.
# Staphylococcus aureus = test: Macro broth dilution MIC, Staphylococcus aureus isolates (Test 1); format: cell-based; conditions: 24 h, read after 24 hours, read-out: Minimum Inhibitory Concentration
# Procedure: (§1) Compounds were tested against five isolates of Staphylococcus aureus and five isolates of Group D Enterococcus. The bacteria used were isolated from patients at the Walter Reed Army Medical Center, Washington, D.C. The test procedure used was the macro broth dilution method in duplicate as outlined by J. C. Sherris on pages 414-415 in "Manual of Clinical Microbiology," 2nd ed., E. Lennette, E. H. Spaulding, and J. P. Truant, Ed. (American Society for Microbiology, Washington, D.C., 1974). Each compound was dissolved in DMSO (12.8 mg/mL) and then diluted with Mueller-Hinton broth to obtain the desired dilutions. Tubes containing the highest quantities of DMSO with no compound present were run as controls.
# [2] = tested on: Mycobacterium intracellulare; test: Broth dilution MIC, Mycobacterium intracellulare strains (Test 6); format: cell-based; conditions: read-out: Minimum Inhibitory Concentration
# Group D Enterococcus = test: Macro broth dilution MIC, Group D Enterococcus isolates (Test 1); format: cell-based; conditions: 24 h, read after 24 hours, read-out: Minimum Inhibitory Concentration
# Procedure: as §1
# [3] = Neisseria gonorrhoeae isolate 135, read after 24 hours
# [4] = Neisseria gonorrhoeae isolate 161, read after 24 hours
# [5] = Neisseria gonorrhoeae isolate 278, read after 24 hours
# [6] = Neisseria gonorrhoeae isolate 455, read after 24 hours
# [7] = Neisseria gonorrhoeae isolate 456, read after 24 hours
# [8] = Neisseria gonorrhoeae isolate 602, read after 24 hours
# [9] = Neisseria meningitidis isolate 7957
# [10] = Neisseria meningitidis isolate 7990
# [11] = Neisseria meningitidis isolate 8005
# [12] = Neisseria meningitidis isolate 8006
# [13] = Neisseria meningitidis isolate 8011
Compound,MIC (Neisseria gonorrhoeae; [3]),MIC (Neisseria gonorrhoeae; [4]),MIC (Neisseria gonorrhoeae; [5]),MIC (Neisseria gonorrhoeae; [6]),MIC (Neisseria gonorrhoeae; [7]),MIC (Neisseria gonorrhoeae; [8]),MIC (Neisseria meningitidis; [9]),MIC (Neisseria meningitidis; [10]),MIC (Neisseria meningitidis; [11]),MIC (Neisseria meningitidis; [12]),MIC (Neisseria meningitidis; [13]),ED50 [1],In vivo Antimalarial Activity ([1]; Dosage Level 640 mg/kg),also measured
"CC(=NNC(=S)N1CCN(c2ccccn2)CC1)c1ccccn1 [V, 1,4-Diaza-4-(2-pyridyl)cyclohexane-1-thiocarboxylic acid 2-[1-(2-pyridyl)ethylidene]hydrazide]",0.016 µg/mL,< 0.008 µg/mL,0.031 µg/mL,0.016 µg/mL,0.016 µg/mL,0.016 µg/mL,0.062 µg/mL,0.125 µg/mL,0.125 µg/mL,0.125 µg/mL,0.25 µg/mL,45 mg/kg,Toxic,
"CC(=NNC(=S)N1CCCCC1C)c1ccccn1 (stereo not drawn) [B, 2-Methylpiperidine-1-thiocarboxylic acid 2-[1-(2-pyridyl)ethylidene]hydrazide]",,,,,,,0.062 µg/mL,0.062 µg/mL,0.125 µg/mL,0.062 µg/mL,0.5 µg/mL,57 mg/kg,Toxic,MIC (Staphylococcus aureus; Staphylococcus aureus isolate I): 1 µg/mL; MIC (Staphylococcus aureus; Staphylococcus aureus isolate II): 1 µg/mL; MIC (Staphylococcus aureus; Staphylococcus aureus isolate III): 1 µg/mL; MIC (Staphylococcus aureus; Staphylococcus aureus isolate IV): 1 µg/mL; MIC (Staphylococcus aureus; Staphylococcus aureus isolate V): 1 µg/mL; In vivo Antimalarial Activity ([1]; Dosage Level 160 mg/kg): Active; In vivo Antimalarial Activity ([1]; Dosage Level 320 mg/kg): Toxic
"CC(=NNC(=S)N1CCCCCC1)c1ccccn1 [H, 1-Azacycloheptane-1-thiocarboxylic acid 2-[1-(2-pyridyl)ethylidene]hydrazide]",0.031 µg/mL,0.016 µg/mL,0.031 µg/mL,0.031 µg/mL,0.016 µg/mL,0.031 µg/mL,0.031 µg/mL,0.062 µg/mL,0.062 µg/mL,0.125 µg/mL,0.062 µg/mL,72 mg/kg,,MIC ([2]; Mycobacterium intracellulare strain I): 1 µg/mL; MIC ([2]; Mycobacterium intracellulare strain II): 1 µg/mL; MIC ([2]; Mycobacterium intracellulare strain III): 1 µg/mL; MIC ([2]; Mycobacterium intracellulare strain IV): 1 µg/mL; MIC ([2]; Mycobacterium intracellulare strain V): 1 µg/mL; MIC ([2]; Mycobacterium intracellulare strain VI): 1 µg/mL; In vivo Antimalarial Activity ([1]; Dosage Level 40 mg/kg): Active; MIC (Group D Enterococcus; Group D Enterococcus isolate I): 4 µg/mL; MIC (Group D Enterococcus; Group D Enterococcus isolate II): 4 µg/mL; MIC (Group D Enterococcus; Group D Enterococcus isolate III): 4 µg/mL; MIC (Group D Enterococcus; Group D Enterococcus isolate IV): 4 µg/mL; MIC (Group D Enterococcus; Group D Enterococcus isolate V): 4 µg/mL

# Reference: patent publication US4385055A, “2-Acetyl-and 2-propionylpyridine thiosemicarbazones as antimalarials” (The United States of America as represented by the …, priority 1981, dated 1983)
